Test results from ChEMBL document CHEMBL1122254, “Sulfonyliminoimidazolidines. A new class of oral hypoglycemic agents. 1. 1-[[p-[2-(acylamino)ethyl]phenyl]sulfonyl]-2-iminoimidazolidines” (1983).

Experiments:
Assay type in all cases: functional
Rattus norvegicus [1] = assay: Compound evaluated for hypoglycemic activity by lowering blood glucose in normal rats by 50% after oral administration
Rattus norvegicus [2] = assay: Compound evaluated for hypoglycemic activity by lowering blood glucose in normal rats by 20% after oral administration
Rattus norvegicus [3] = assay: Compound evaluated for hypoglycemic activity by lowering blood glucose in streptozotocin-diabetic rats by 20% after oral administration; Inactive(less than 10% blood sugar decrease)
Rattus norvegicus [4] = assay: Compound evaluated for hypoglycemic activity by lowering blood glucose in streptozotocin-diabetic rats by 20% after oral administration; Highest dose tested; Inactive(less than 10% blood sugar decrease)
Rattus norvegicus [5] = assay: Hypoglycemic activity by lowering blood glucose in normal rats by 20% after oral administration.
Rattus norvegicus [6] = assay: Compound evaluated for hypoglycemic activity by lowering blood glucose in normal rats by 20% after oral administration; inactive (less than 10% blood sugar decrease)
Rattus norvegicus [7] = assay: Compound evaluated for hypoglycemic activity by lowering blood glucose in normal rats by 20% after oral administration (highest dose tested)
Rattus norvegicus [8] = assay: Compound evaluated for hypoglycemic activity by lowering blood glucose in streptozotocin-diabetic rats by 20% after oral administration; Highest dose tested
Rattus norvegicus [9] = assay: Hypoglycemic activity by lowering blood glucose in normal rats by 50% after oral administration.
Rattus norvegicus [10] = assay: Compound evaluated for hypoglycemic activity by lowering blood glucose in normal rats by 20% after oral administration; highest dose tested;inactive(less than 10% blood sugar decrease)
Rattus norvegicus [11] = assay: Compound evaluated for hypoglycemic activity by lowering blood glucose in normal rats by 50% after oral administration; inactive(less than 10% blood sugar decrease)
Rattus norvegicus [12] = assay: Compound evaluated for hypoglycemic activity by lowering blood glucose in streptozotocin-diabetic rats by 20% after oral administration
Rattus norvegicus [13] = assay: Compound evaluated for hypoglycemic activity by lowering blood glucose in normal rats by 20% after oral administration; Inactive (less than 10% blood sugar decrease)

Compound: CCCCNC(=O)NS(=O)(=O)c1ccc(C)cc1 [TOLBUTAMIDE]
- ED50 (Rattus norvegicus [1]): 300 µmol/kg
- ED20 (Rattus norvegicus [2]): 0.056 mmol/kg
- ED20 (Rattus norvegicus [3]): > 1 mmol/kg

Compound: N=C1N(C2CCCCC2)CCN1S(=O)(=O)c1ccc(CCNC(N)=O)cc1
- ED20 (Rattus norvegicus [4]): > 0.76 mmol/kg
- ED20 (Rattus norvegicus [5]): 0.39 mmol/kg

Compound: N=C1N(C2CCCCC2)CCN1S(=O)(=O)c1ccc(CCNC(=O)c2ccccc2)cc1
- ED50 (Rattus norvegicus [1]): 200 µmol/kg
- ED20 (Rattus norvegicus [2]): 0.021 mmol/kg

Compound: Cc1ncsc1C(=O)NCCc1ccc(S(=O)(=O)N2CCN(C3CCCCC3)C2=N)cc1
- ED20 (Rattus norvegicus [6]): > 0.22 mmol/kg

Compound: N=C1N(C2CCCCC2)CCN1S(=O)(=O)c1ccc(CCNC(=O)c2ccccn2)cc1
- ED20 (Rattus norvegicus [7]): > 0.83 mmol/kg

Compound: CCC[S+]([O-])CC(=O)NCCc1ccc(S(=O)(=O)N2CCN(C3CCCCC3)C2=N)cc1 (stereo not given)
- ED20 (Rattus norvegicus [4]): > 0.62 mmol/kg
- ED20 (Rattus norvegicus [5]): 0.071 mmol/kg

Compound: CN(C)C(C(=O)NCCc1ccc(S(=O)(=O)N2CCN(C3CCCCC3)C2=N)cc1)c1ccccc1 (stereo not given)
- ED20 (Rattus norvegicus [8]): > 0.55 mmol/kg
- ED20 (Rattus norvegicus [5]): 0.037 mmol/kg
- ED50 (Rattus norvegicus [9]): 170 µmol/kg

Compound: C[S+]([O-])CC(=O)NCCc1ccc(S(=O)(=O)N2CCN(C3CCCCC3)C2=N)cc1 (stereo not given)
- ED20 (Rattus norvegicus [4]): > 0.66 mmol/kg
- ED20 (Rattus norvegicus [5]): 0.12 mmol/kg

Compound: N=C1N(C2CCCCC2)CCN1S(=O)(=O)c1ccc(CCNC(=O)c2ccc[n+]([O-])c2)cc1
- ED20 (Rattus norvegicus [2]): 0.042 mmol/kg
- ED20 (Rattus norvegicus [3]): > 0.64 mmol/kg

Compound: N=C(N)NC(=N)NCCc1ccccc1 [PHENFORMIN]
- ED20 (Rattus norvegicus [10]): > 1 mmol/kg
- ED50 (Rattus norvegicus [11]): > 1000 µmol/kg
- ED20 (Rattus norvegicus [12]): 0.16 mmol/kg

Compound: COCC(=O)NCCc1ccc(S(=O)(=O)N2CCN(C3CCCCC3)C2=N)cc1
- ED20 (Rattus norvegicus [13]): > 0.92 mmol/kg

Compound: CC[S+]([O-])CCC(=O)NCCc1ccc(S(=O)(=O)N2CCN(C3CCCCC3)C2=N)cc1 (stereo not given)
- ED20 (Rattus norvegicus [8]): > 0.62 mmol/kg
- ED20 (Rattus norvegicus [5]): 0.031 mmol/kg
- ED50 (Rattus norvegicus [9]): 200 µmol/kg
